Reference: US11034839B2, “Compounds, linked with haptens, for the detection of senescent cells” (THE UNIVERSITY OF MANCHESTER, priority 2016, dated 2021)

Columns and labels:
[1] = tested on: senescent cells in cellular systems, mouse models and human clinical samples; experiment: Double staining with Ki67, p16INK4A or p21WAF1/Cip1
Protocol: (§1) • 1. Compound (LG13) • 2. 100% ethanol (100% EtOH) • 3. Parafilm • 4. Fritted glass filter of medium porosity • 5. Airtight Dye Container 2.2.2 General Procedure: • 1. Dissolve 40 mg of the compound (LG13) in 7.4 ml 100% EtOH in a glass beaker and cover it with parafilm. • 2. Incubate at 56° C. in a waterbath for 120 min until the compound is completely dissolved. 2.3. General Method for Compound (LG13) Staining 2.3.1 Materials: • 1. Xylene • 2. […] Syringe • 4. 13 mm filter, membrane 0.22 μm • 5. Soft paper (dry or dipped in ethanol) • 6. Anti-biotin antibody ([Hyb-8] ab201341, Abcam) • 7. Ultravision Quanto Detection System HRP DAB kit (Cat no: TL-125-QHD) • 8. Glycerol (Sigma-Aldrich) • 9. Tris Buffered Saline (TBS; 10×): 1.5 M NaCl, 0.1 M Tris-HCl, pH 7.4. Store at 4° C. • 10. 0.5% Triton X/TBS: 0.5 ml Triton X diluted in 99.5 ml TBS • 11. Mounting media Glycergel (DakoCytomation). • 12. Light Microscope • 13. Anti-p21^WAF1/Cip1 mouse primary antibody [(F-5)(sc-6246) Santa-Cruz] • 14. Anti-p16^INK4A mouse primary antibody [(sc-74401) Santa-Cruz] • 15. Anti-Ki67 rabbit polyclonal antibody [ab16667, Abcam] • 16. Secondary goat anti-mouse antibody Alexa Fluor 568 conjugated [Thermo Fisher Scientific (Cat no: A-11004)] • 17. DAPI (4′,6-Diamidino-2-Phenylindole, Dihydrochloride) [Thermo Fisher Scientific (Cat no: D1306)] • 18. Fluorescence microscope 2.3.2 General Procedures: 2.3.2.1 General Staining Protocol for Cells Mounted on Coverslips • 1. Wash ×1 in TBS for 5 min at RT. • 2. Block the endogenous hydrogen peroxidase, using the UltraVision Hydrogen Peroxide Block included in the Ultravision Quanto Detection System HRP DAB kit (Cat no: TL-125-QHD) for 10 min at RT and in dark conditions. • 3. Wash ×2 in TBS for 30 sec and ×1 for 5 min at RT. • 4. Wash ×1 in EtOH 50% for 5 min at RT. • 5. Wash ×1 EtOH 70% for 5 min at RT. • 6. […] The staining reaction is monitored under the light microscope until detection of the signal (average time 5-8 min). • 8. […] The staining reaction is monitored under the light microscope until detection of the dark brown signal (average time 30 sec-1 min) at RT 1. • 20. […]

[2] = tested on: senescent cells in U2OS hCdt1 Tet-ON cell line, palbociclib-induced human melanoma xenograft mouse model, irradiated human breast tissue; experiment: Hybrid histo-/immunochemical assay (HIC) compared with SBB histochemical stain (HC)
Protocol: as §1, with “Anti-p16^INK4A mouse primary antibody [(sc-74401) Santa-Cruz] • 15. Anti-Ki67 rabbit polyclonal antibody [ab16667, Abcam] • 16. Secondary goat anti-mouse antibody Alexa Fluor 568 conjugated [Thermo Fisher Scientific (Cat no: A-11004)] • 17. DAPI (4′,6-Diamidino-2-Phenylindole, Dihydrochloride) [Thermo Fisher Scientific (Cat no: D1306)] • 18.” left out, “1.” for “1. Wash ×1 in TBS for 5 min at RT. • 2. Block the endogenous hydrogen peroxidase, using the UltraVision Hydrogen Peroxide Block included in the Ultravision Quanto Detection System HRP DAB kit (Cat no: TL-125-QHD) for 10 min at RT and in dark conditions. • 3. Wash ×2 in TBS for 30 sec and ×1 for 5 min at RT. • 4. Wash ×1 in EtOH 50% for 5 min at RT. • 5. Wash ×1 EtOH 70% for 5 min at RT. • 6.”

[3] = tested on: human diploid lung fibroblasts (DLFs) and human bronchial epithelial cells (HBEC-Cdc6 Tet-ON); experiment: IHC staining versus proliferation markers (Ki67 and BrdU incorporation); type: cell-based; details: FIG. 16

Compound: CC1(COC(=O)CCCC[C@H]2SC[C@H]3NC(=O)N[C@H]32)Nc2cccc3c(/N=N/c4ccc(/N=N/c5ccccc5)c5ccccc45)ccc(c23)N1 (stereo partly drawn) [LG13, (2-methyl-6-((E)-(4-((E)-phenyldiazenyl)naphthalen-1-yl)diazenyl)-2,3-dihydro-1H-perimidin-2-yl)methyl 5-((3aR,4R,6aS)-2-oxohexahydro-1H-thieno[3,4-d]imidazol-4-yl)pentanoate]
- relationship between Ki67 expression and compound staining ([1]; double staining in cell culture systems and human clinical samples, FIG. 11): Strict inverse relationship
- compound staining of senescent cells with nuclear p16INK4A or p21WAF1/Cip1 expression ([1]; irradiated DLFs, induced Saos2-p21 Tet-ON, K-rasV12 mouse lung adenoma, irradiated human breast samples, FIG. 12i): concurrently positive
- relationship between nuclear Ki67 positivity and compound staining ([1]; lung sections, mouse bleomycin-induced lung fibrosis, FIG. 12ii): strict inverse relationship
- IHC staining relative to SBB HC staining ([2]; U2OS hCdt1 Tet-ON, palbociclib melanoma xenograft, irradiated human breast tissue, FIG. 14 ai, bi, ci): superiority
- senescence detection using the HIC assay ([2]; additional cellular systems, mouse models, human clinical samples, FIG. 14 aii, bii, cii): sensitive senescence detection
- relationship between IHC staining and proliferation markers (Ki67 and BrdU incorporation) [3]: Inverse relationship
